Key:
[1] = target: Tyrosine-protein kinase Lck (Homo sapiens, UniProt P06239); test: Selectivity interaction (KinomeScan (DiscoverX)) EUB0000699a LCK; conditions: at 10 µM
[2] = target: T1, Protein kinase C epsilon type (Homo sapiens) (UniProt Q02156); test: Selectivity interaction (KinomeScan (DiscoverX)) EUB0000655a PRKCE; conditions: at 10 µM
T1 sequence (whole entry): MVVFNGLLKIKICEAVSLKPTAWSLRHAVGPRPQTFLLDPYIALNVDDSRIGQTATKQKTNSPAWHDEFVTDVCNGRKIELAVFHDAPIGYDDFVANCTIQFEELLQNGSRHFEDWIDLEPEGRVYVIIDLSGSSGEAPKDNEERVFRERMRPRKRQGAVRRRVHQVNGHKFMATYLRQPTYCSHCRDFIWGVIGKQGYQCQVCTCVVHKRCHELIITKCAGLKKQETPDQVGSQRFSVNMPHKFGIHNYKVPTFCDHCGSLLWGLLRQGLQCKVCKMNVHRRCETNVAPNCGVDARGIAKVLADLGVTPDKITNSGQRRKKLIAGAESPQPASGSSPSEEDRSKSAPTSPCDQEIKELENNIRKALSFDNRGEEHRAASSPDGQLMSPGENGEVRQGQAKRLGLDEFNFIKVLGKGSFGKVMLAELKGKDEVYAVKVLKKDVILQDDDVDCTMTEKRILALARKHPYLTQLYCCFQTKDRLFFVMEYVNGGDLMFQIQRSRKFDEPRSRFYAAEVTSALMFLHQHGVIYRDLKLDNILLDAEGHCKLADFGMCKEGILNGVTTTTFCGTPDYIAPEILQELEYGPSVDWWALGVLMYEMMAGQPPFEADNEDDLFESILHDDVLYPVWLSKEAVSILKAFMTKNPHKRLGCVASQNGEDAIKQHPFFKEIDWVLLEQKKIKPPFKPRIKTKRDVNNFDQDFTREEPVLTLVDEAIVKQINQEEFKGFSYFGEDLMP

[3] = target: Dual specificity protein kinase CLK1 (Homo sapiens, UniProt P49759); test: Selectivity interaction (KinomeScan (DiscoverX)) EUB0001619a CLK1; conditions: at 1 µM
Dual specificity protein kinase CLK1, sequence (P49759 whole entry, looked up): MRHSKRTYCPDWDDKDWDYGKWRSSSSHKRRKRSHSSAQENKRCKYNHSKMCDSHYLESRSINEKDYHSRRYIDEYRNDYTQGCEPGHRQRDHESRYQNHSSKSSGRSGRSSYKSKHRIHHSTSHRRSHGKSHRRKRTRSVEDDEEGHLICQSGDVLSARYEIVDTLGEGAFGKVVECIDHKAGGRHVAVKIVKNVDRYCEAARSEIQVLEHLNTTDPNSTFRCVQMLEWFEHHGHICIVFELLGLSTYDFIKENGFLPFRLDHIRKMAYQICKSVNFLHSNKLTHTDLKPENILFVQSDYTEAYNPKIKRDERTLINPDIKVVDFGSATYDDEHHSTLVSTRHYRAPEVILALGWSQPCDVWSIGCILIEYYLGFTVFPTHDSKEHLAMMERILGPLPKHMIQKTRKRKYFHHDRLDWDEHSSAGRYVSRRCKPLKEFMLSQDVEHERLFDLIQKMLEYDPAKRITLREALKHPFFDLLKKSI

[4] = target: Serine/threonine-protein kinase 26 (Homo sapiens, UniProt Q9P289); test: Selectivity interaction (Kinase panel (DSF assay)) EUB0001558a STK26
Serine/threonine-protein kinase 26, sequence (Q9P289 2-416 limits assumed): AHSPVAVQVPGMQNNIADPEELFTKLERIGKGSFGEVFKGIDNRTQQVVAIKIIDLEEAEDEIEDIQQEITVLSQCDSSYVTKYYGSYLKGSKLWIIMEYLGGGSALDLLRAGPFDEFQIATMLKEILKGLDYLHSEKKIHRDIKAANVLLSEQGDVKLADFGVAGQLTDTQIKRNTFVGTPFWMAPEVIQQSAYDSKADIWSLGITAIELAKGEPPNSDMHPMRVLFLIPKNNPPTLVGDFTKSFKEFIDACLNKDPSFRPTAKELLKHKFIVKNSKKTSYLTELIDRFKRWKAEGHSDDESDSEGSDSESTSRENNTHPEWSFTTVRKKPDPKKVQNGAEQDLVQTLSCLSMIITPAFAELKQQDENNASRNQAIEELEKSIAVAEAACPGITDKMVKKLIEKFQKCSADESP

[5] = target: T2, Myotonin-protein kinase (Homo sapiens) (UniProt Q09013); test: Selectivity interaction (KinomeScan (DiscoverX)) EUB0000045b DMPK
T2 sequence (whole entry): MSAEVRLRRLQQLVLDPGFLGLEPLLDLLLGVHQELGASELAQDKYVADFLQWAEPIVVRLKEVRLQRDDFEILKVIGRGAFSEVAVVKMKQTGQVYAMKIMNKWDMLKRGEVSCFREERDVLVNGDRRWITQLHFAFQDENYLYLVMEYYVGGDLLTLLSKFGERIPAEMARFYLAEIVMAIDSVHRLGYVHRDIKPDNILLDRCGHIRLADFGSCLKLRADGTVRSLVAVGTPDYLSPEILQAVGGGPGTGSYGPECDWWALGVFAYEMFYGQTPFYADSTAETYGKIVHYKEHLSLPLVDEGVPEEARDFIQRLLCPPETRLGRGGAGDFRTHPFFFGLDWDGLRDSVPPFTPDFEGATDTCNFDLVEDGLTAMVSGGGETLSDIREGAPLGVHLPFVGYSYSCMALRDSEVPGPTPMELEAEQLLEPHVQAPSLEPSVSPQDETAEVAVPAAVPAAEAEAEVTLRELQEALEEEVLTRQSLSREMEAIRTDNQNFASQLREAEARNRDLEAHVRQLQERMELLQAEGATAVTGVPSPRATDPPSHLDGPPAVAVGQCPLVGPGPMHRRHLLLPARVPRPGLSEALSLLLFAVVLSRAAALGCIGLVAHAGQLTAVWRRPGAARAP

[6] = target: T3, Tyrosine-protein kinase Mer (Homo sapiens) (UniProt Q12866); test: Selectivity interaction (KinomeScan (DiscoverX)) EUB0000045b MERTK
T3 sequence (whole entry): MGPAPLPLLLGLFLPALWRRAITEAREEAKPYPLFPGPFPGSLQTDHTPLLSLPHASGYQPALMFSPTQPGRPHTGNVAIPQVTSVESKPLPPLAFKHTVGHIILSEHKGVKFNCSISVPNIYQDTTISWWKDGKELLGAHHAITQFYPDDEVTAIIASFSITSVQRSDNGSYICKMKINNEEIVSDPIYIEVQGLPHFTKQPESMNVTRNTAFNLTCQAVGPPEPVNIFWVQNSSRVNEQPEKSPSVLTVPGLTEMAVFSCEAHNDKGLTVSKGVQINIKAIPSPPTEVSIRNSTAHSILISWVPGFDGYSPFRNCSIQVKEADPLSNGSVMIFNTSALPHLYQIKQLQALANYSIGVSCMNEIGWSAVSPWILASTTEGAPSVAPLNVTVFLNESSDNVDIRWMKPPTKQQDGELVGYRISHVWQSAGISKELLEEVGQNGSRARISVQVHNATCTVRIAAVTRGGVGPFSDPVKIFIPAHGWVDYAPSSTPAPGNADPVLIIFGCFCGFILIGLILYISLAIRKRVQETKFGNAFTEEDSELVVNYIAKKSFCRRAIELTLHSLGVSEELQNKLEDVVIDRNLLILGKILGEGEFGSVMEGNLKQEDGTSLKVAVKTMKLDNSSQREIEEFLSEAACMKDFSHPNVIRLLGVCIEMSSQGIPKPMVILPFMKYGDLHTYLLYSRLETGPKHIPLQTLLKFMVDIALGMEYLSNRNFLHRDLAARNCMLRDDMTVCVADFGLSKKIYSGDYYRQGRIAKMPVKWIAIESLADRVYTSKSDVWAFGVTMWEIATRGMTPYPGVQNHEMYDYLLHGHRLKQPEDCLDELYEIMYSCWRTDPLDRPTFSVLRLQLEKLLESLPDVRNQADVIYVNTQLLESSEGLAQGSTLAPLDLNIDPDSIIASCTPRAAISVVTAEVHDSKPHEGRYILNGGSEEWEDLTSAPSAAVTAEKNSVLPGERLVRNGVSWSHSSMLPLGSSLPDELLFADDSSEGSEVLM

[7] = target: 5'-AMP-activated protein kinase catalytic subunit alpha-2 (Homo sapiens) (UniProt P54646); test: Selectivity interaction (ActivX KiNativ screen (kinase selectivity in THP-1 cell lysates)) EUB0000639a PRKAA2; assay type: subcellular; conditions: lysate, at 0.04 µM
5'-AMP-activated protein kinase catalytic subunit alpha-2 (Homo sapiens), sequence (P54646 whole entry, looked up): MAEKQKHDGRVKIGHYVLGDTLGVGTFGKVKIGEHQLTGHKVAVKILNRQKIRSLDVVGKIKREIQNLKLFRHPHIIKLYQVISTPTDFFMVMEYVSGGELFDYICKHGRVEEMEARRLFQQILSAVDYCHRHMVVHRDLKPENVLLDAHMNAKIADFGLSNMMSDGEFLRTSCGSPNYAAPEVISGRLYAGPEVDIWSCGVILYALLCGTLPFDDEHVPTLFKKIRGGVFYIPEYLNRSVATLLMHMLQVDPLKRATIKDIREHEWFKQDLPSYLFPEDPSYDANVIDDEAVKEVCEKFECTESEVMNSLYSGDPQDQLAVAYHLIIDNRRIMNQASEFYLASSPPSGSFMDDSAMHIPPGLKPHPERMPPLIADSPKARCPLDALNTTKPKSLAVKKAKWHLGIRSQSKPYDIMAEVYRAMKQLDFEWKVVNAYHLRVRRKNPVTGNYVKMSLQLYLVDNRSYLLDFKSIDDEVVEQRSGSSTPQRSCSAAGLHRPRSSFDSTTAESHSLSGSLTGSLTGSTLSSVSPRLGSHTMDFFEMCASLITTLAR

[8] = target: Cyclin-dependent kinase 11B (Homo sapiens) (UniProt P21127); test: Selectivity interaction (KinomeScan (DiscoverX)) EUB0000666a CDK11B; conditions: at 10 µM
Cyclin-dependent kinase 11B (Homo sapiens), sequence (P21127 whole entry, the tested form may be a part): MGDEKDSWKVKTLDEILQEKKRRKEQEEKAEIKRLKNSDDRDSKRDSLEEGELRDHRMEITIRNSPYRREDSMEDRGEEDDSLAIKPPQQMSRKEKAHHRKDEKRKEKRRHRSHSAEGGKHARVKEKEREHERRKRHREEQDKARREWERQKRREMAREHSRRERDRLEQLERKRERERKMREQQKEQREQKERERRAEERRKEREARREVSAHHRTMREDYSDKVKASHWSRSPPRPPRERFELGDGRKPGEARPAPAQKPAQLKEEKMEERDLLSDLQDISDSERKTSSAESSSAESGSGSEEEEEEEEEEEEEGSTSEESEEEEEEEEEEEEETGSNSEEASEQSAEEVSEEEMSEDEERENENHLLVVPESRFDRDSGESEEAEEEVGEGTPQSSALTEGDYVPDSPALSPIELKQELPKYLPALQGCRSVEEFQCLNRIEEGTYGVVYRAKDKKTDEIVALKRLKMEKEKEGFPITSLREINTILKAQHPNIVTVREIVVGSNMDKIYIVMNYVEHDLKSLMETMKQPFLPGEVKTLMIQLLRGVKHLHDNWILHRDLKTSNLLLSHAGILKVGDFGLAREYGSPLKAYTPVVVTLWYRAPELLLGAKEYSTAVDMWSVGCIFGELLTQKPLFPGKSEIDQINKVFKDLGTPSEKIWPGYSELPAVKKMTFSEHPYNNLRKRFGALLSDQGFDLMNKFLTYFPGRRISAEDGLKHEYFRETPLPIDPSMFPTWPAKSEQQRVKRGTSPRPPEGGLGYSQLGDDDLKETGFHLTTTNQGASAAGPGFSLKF

[9] = target: LIM domain kinase 1 (Homo sapiens) (UniProt P53667); test: Selectivity interaction (LanthaScreen Eu Kinase Binding Assay) EUB0001632a LIMK1; conditions: at 10 µM
LIM domain kinase 1 (Homo sapiens), sequence (P53667 whole entry, looked up, the tested form may be a part): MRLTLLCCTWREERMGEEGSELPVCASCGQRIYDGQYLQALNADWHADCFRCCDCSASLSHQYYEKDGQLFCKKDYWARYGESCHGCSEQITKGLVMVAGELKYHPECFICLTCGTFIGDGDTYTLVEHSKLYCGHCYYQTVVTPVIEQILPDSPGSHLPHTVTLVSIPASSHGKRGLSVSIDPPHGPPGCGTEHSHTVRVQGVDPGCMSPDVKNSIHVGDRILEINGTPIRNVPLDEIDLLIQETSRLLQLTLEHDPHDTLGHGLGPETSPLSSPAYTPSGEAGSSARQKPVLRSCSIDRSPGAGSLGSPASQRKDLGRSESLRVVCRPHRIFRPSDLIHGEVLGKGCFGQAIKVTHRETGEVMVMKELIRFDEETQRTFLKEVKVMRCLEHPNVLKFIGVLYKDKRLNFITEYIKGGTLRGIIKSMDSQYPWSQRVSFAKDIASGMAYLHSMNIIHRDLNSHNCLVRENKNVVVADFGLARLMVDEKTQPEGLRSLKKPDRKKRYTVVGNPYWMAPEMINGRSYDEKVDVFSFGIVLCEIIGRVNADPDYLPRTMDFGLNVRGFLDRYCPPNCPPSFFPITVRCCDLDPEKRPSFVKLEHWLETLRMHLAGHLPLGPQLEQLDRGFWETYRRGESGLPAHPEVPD

[10] = target: Serine/threonine-protein kinase 35 (Homo sapiens) (UniProt Q8TDR2); test: Selectivity interaction (KinomeScan (DiscoverX)) EUB0000695a STK35; conditions: at 100 nM
Serine/threonine-protein kinase 35 (Homo sapiens), sequence (Q8TDR2 whole entry): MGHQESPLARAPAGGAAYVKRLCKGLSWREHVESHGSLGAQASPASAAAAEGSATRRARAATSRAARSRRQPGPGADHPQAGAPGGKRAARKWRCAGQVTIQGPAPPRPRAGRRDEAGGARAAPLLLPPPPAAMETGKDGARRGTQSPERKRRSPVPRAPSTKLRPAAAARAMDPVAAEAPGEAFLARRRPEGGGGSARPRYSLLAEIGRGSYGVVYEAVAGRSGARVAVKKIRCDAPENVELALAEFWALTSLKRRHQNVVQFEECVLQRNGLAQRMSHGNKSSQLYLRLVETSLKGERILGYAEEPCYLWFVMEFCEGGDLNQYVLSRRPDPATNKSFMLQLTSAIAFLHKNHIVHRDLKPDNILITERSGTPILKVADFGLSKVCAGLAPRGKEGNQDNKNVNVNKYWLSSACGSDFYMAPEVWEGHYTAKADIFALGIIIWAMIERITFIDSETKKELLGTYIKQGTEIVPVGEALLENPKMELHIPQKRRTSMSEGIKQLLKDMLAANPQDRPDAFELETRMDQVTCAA

Tyrosine-protein kinase Lck, sequence (P06239 2-509 limits assumed): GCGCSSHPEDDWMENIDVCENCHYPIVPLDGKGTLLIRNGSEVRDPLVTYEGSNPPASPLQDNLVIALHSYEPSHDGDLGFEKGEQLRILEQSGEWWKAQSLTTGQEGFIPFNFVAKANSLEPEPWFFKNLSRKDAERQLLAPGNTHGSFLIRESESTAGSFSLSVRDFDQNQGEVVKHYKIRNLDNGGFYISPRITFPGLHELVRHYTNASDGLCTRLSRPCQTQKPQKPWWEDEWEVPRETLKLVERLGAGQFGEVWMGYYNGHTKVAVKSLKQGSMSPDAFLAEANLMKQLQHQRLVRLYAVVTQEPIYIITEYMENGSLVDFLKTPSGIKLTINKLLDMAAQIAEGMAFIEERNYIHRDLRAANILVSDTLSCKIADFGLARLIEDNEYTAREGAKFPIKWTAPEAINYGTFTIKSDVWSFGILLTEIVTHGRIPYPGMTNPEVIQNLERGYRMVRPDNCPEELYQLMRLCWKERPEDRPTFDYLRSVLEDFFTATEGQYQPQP

## CCN(CC)CCCCNc1ncc2cc(-c3cc(OC)cc(OC)c3)c(NC(=O)NC(C)(C)C)nc2n1
[1]
  % of control: 22%

## CN(C)CCOc1ccc(-c2nc(-c3ccncc3)c(-c3ccc4c(c3)CC/C4=N\O)[nH]2)cc1
[2]
  % of control: 100%

## N#Cc1cccc(-c2c[nH]c3ncnc(N4CCOCC4)c23)c1
[3]
  % of control: 63%

## CC(C)(O)[C@H](F)CN1Cc2cc(NC(=O)c3cnn4cccnc34)c(N3CCOCC3)cc2C1=O
[4]
  dTM: 0.4 K

## C=CC(=O)Nc1cc(-n2c(=O)ccc3cnc4ccc(-c5ccc(NS(C)(=O)=O)cc5)cc4c32)ccc1C
[5]; at 1 µM
  % of control: 91%
[5]; at 10 µM
  % of control: 100%
[6]; at 1 µM
  % of control: 72%
[6]; at 10 µM
  % of control: 100%

## CC[C@@H]1[C@H](F)C(=O)N[C@@H]1COc1nccc2cc(C(N)=O)c(OC)cc12 [ZIMLOVISERTIB]
[7]
  % of inhibition: -11.5%

## O=C(NOC[C@H](O)CO)c1ccc(F)c(F)c1Nc1ccc(I)cc1F
[8]
  % of control: 97%

## Cn1cc(-n2cnc3c(NCc4nc5cc(Cl)c(Cl)cc5[nH]4)nc(N4CCOCC4)nc32)cn1
[9]
  % of inhibition: -36.5%

## Cc1cc(F)c(C(=O)Nc2cccc(-c3nncn3C(C)C)n2)cc1-n1cnc(C2CC2)c1
[10]
  % of control: 100%
